Target: T1, human PAD4 (Homo sapiens, UniProt Q9UM07)
T1 construct: human PAD4 (NM_012387), A2-P663, was PCR amplified; His-SUMO (N, cleaved yes); made in house; host or cells: E. coli BL21(DE3)
Assay: In vitro PAD4 BAEE biochemical assay
Details: BAEE substrate 3 mM, 5 nM PAD4, 2 mM calcium chloride; geometric mean of multiple experiments
In short: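 Ammonia produced by BAEE deimination (3 mM substrate, 2 h, 25 °C) was read as fluorescent isoindole after o-phthalaldehyde/DTT derivatization, ex 405 nm/em 535 nm. Human PAD4 at 5 nM final, 2 mM calcium, pH 7.6 MOPS; compound preincubated 30 min. IC50s, normalized to BB-Cl-Amidine and DMSO controls, were geometric-mean averaged.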

T1 sequence (Q9UM07 2-663): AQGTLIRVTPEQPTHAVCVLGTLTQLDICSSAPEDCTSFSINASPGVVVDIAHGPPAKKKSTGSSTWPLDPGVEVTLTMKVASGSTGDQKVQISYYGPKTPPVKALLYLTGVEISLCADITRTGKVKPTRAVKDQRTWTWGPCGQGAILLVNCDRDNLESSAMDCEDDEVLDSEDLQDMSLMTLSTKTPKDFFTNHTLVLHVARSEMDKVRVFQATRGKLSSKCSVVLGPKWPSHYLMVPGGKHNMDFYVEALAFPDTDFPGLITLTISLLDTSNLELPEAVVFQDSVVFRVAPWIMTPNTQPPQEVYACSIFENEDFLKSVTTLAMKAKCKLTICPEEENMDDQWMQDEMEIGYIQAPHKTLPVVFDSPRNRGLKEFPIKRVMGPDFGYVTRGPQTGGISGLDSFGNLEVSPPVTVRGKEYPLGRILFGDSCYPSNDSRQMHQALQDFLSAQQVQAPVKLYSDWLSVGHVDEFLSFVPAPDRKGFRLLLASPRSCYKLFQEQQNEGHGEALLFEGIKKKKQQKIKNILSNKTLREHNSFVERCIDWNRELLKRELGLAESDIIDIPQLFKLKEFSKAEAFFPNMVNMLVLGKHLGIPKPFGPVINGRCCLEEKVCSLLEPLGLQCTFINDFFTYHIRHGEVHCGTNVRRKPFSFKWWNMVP

IC50 | Structure (SMILES)
0.067 µM | C[C@H]1NC(=O)[C@@H]2C[C@H]2CCCCCn2c(-c3nc4cc(C(=O)N[C@H]5CNCC[C@@H]5F)c(F)cc4n3CCOC(F)(F)F)cc3ccc1nc32 [Example 599, 6-fluoro-~{N}-[(3~{S},4~{S})-4-fluoro-3-piperidyl]-2-[(2~{R}, 5~{R},7~{R})-2-methyl-4-oxo-3,13,19-triazatetracyclo[11.5.2.0^ {5,7}.0^{16,20}]icosa-1(19),14,16(20),17-tetraen-14-yl]-1-[2-(trifluoromethoxy)ethyl]benzimidazole-5-carboxamide]
0.136 µM | COc1cc(C(=O)N2CC[C@@H](OCC34CC(F)(C3)C4)[C@@H](N)C2)cc2nc(-c3cc4ccc5nc4n3CCCCC[C@@H]3C[C@H]3C(=O)N[C@@H]5C)n(C)c12 [Example 494]
0.037 µM | COc1cc(C(=O)N2CC[C@@H](OC)[C@@H](N)C2)cc2nc(-c3cc4ccc5nc4n3CC(F)(F)CCC[C@@H]3C[C@H]3C(=O)N(CC3CC3)[C@@H]5C)n(C)c12 [Example 868, (2~{R},5~{R},7~{R})-14-[5-[(3~{S},4~{R})-3-amino-4-methoxy-piperidine-1-carbonyl]-7-methoxy-1-methyl-benzimidazol-2-yl]-3-(cyclopropylmethyl)-11,11-difluoro-2-methyl-3,13,19-triazatetracyclo[11.5.2.0^ {5,7}.0^{16,20}]icosa-1(19), 14,16(20),17-tetraen-4-one]
0.013 µM | C[C@H]1NC(=O)[C@@H]2C[C@H]2CCCCCn2c(-c3nc4cc(C(=O)N5C[C@H](N)[C@@H]6CC[C@H]5C6)cc(OC(F)F)c4n3C)cc3ccc1nc32 [Example 763, (2~{R},5~{R},7~{R})-14-[5-[(1~{S},4~{R},5~{R})-4-amino-2-azabicyclo[3.2.1]octane-2-carbonyl]-7-(difluoromethoxy)-1-methyl-benzimidazol-2-yl]-2-methyl-3,13,19-triazatetracyclo[11.5.2.0^ {5,7}.0^{16,20}]icosa-1(19),14,16(20),17-tetraen-4-one]
0.052 µM | COc1cc(C(=O)N2CCC[C@@H](N)C2)cc2nc(-c3cc4ccc5nc4n3CCCCCCCCCC(=O)N[C@@H]5C)c(C)n12 [Example 284, (13~{R})-19-[7-[(3~{R})-3-aminopiperidine-1-carbonyl]-5-methoxy-3-methyl-imidazo[1,2-a]pyridin-2-yl]-13-methyl-1,12,21-triazatricyclo[12.5.2.0^{17,20}]henicosa-14(21),15,17(20),18-tetraen-11-one]
0.013 µM | COc1cc(C(=O)N2CC[C@@H](OC)[C@@H](N)C2)cc2nc(-c3cc4ccc5nc4n3CCCC(F)(F)C[C@@H]3C[C@H]3C(=O)N[C@@H]5C)n(C)c12 [Example 857]
0.012 µM | COc1cc(C(=O)N2[C@H]3CC[C@@H]2[C@H](N)C3)cc2nc(-c3cc4ccc5nc4n3CCCCCn3nccc3C(=O)N[C@@H]5C)c(C)n12 [Example 32, (2~{R})-16-[7-[(1~{R},2~{R},4~{S})-2-amino-7-azabicyclo[2.2.1]heptane-7-carbonyl]-5-methoxy-3-methyl-imidazo[1,2-a]pyridin-2-yl]-2-methyl-3,8,9,15,21-pentazatetracyclo[13.5.2.0^{5,9}.0^{18,22}] docosa-1(21),5,7,16,18(22),19-hexaen-4-one]
0.024 µM | C[C@H]1NC(=O)[C@@H]2C[C@H]2CC(F)(F)CCCn2c(-c3nc4cc(C(=O)N5C[C@H](N)[C@@H]6CC[C@H]5C6)cc(F)c4n3C3CC3)cc3ccc1nc32 [Example 881, (2~{R},5~{R},7~{S})-14-[5-[(1~{S},4~{R},5~{R})-4-amino-2-azabicyclo [3.2.1]octane-2-carbonyl]-1-cyclopropyl-7-fluoro-benzimidazol-2-yl]-9,9-difluoro-2-methyl-3,13,19-triazatetracyclo [11.5.2.0^{5,7}.0^{16,20}] icosa-1(19),14,16(20), 17-tetraen-4-one]
0.02 µM | COc1cc(C(=O)N2C[C@H](N)C[C@@H](F)C2)cc2nc(-c3cc4ccc5nc4n3CC(F)(F)CCC[C@@H]3C[C@H]3C(=O)N[C@@H]5C)n(C)c12 [Example 851, (2~{R},5~{R},7~{R})-14-[5-[(3~{R},5~{R})-3-amino-5-fluoro-piperidine-1-carbonyl]-7-methoxy-1-methyl-benzimidazol-2-yl]-11,11-difluoro-2-methyl-3,13,19-triazatetracyclo[11.5.2.0^ {5,7}.0^{16,20}]icosa-1(19), 14,16(20),17-tetraen-4-one]
0.548 µM | COc1cc(C(=O)N2CCC[C@@H](N)C2)cc2nc(-c3cc4ccc5nc4n3CCCCCCNC(=O)CO5)c(C)n12 [Example 293, 17-[7-[(3˜{R})-3-aminopiperidine-1-carbonyl]-5-methoxy-3-methyl-imidazo[1,2-a]pyridin-2-yl]-11-oxa-1,8,19-triazatricyclo[10.5.2.0^{15,18}]nonadeca-12(19),13,15(18),16-tetraen-9-one]
0.005 µM | [2H]C1([2H])[C@H](N)[C@@H]2CC[C@@H](C2)N1C(=O)c1cc(OC)c2c(c1)nc(-c1cc3ccc4nc3n1CCCCCc1ccccc1C(=O)N[C@@H]4C)n2C [Example 770, (2~{R})-17-[5-[(1~{S},4~{R}, 5~{R})-4-amino-3,3-dideuterio-2-azabicyclo[3.2.1]octane-2-carbonyl]-7-methoxy-1-methyl-benzimidazol-2-yl]-2-methyl-3,16,22-triazatetracyclo[14.5.2.0^ {5,10).0^{19,23}]tricosa-1(22),5(10),6,8,17,19(23), 20-heptaen-4-one]
0.154 µM | COc1cc(C(=O)N2[C@H]3CC[C@@H]2[C@H](N)C3)cc2nc(-c3cc4ccc5nc4n3CCCCCCNC(=O)CC5C)n(C)c12 (stereo partly drawn) [Example 227, 17-[5-[(1˜{R},2˜{R},4˜{S})-2-amino-7-azabicyclo[2.2.1]heptane-7-carbonyl]-7-methoxy-1-methyl-benzimidazol-2-yl]-11-methyl-1,8,19-triazatricyclo[10.5.2.0^{15,18}]nonadeca-12(19),13,15(18),16-tetraen-9-one]
0.064 µM | C[C@H]1NC(=O)C(C)(C)CCCCCCn2c(-c3nc4cc(C(=O)N5[C@H]6CC[C@@H]5[C@H](N)C6)c(F)cc4n3C3CC3)cc3ccc1nc32 [Example 488, (11~{R})-17-[5-[(1~ {R},2~{R},4~{S})-2-amino-7-azabicyclo [2.2.1]heptane-7-carbonyl]-1-cyclopropyl-6-fluoro-benzimidazol-2-yl]-8,8,11-trimethyl-1,10,19-triazatricyclo [10.5.2.0^{15,18}]nonadeca-12(19),13,15(18),16-tetraen-9-one]
0.059 µM | COc1cc(C(=O)N2CC[C@@H](OC)[C@@H](N)C2)cc2nc(-c3cc4ccc5nc4n3CCCCCc3cncc(Cl)c3C(=O)N[C@@H]5C)n(C)c12 [Example 651, (2~{R})-17-[5-[(3~{S}, 4~{R})-3-amino-4-methoxy-piperidine-1-carbonyl]-7-methoxy-1-methyl-benzimidazol-2-yl]-6-chloro-2-methyl-3,8,16,22-tetrazatetracyclo[14.5.2.0^ {5,10).0^{19,23}]tricosa-1(22),5,7,9,17,19(23),20-heptaen-4-one]
0.017 µM | C[C@H]1NC(=O)c2ccc(Cl)nc2CCCCCn2c(-c3nc4cc(C(=O)N5C[C@H](N)C[C@@H](F)C5)cc(F)c4n3C3CC3)cc3ccc1nc32 [Example 791, (2~{R})-17-[5-[(3~{R},5~{R})-3-amino-5-fluoro-piperidine-1-carbonyl]-1-cyclopropyl-7-fluoro-benzimidazol-2-yl]-8-chloro-2-methyl-3,9,16,22-tetrazatetracyclo[14.5.2.0^ {5,10}.0^{19,23}]tricosa-1(21),5(10),6,8,17,19,22-heptaen-4-one]
